Source: PubChem BioAssay (NCI)
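48-hour exposure; five concentrations; linearly interpolated endpoints. Here, GI50 denotes the concentration required for 50% inhibition of growth. At the TGI there is no net growth.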

Columns and labels:
Test in all cases: DTP human tumour cell line panel, 48 h
SK-MEL-5 melanoma = system: SK-MEL-5 melanoma
SK-OV-3 ovarian = system: SK-OV-3 ovarian
SNB-19 CNS = system: SNB-19 CNS
786-0 renal = system: 786-0 renal
HT29 colon = system: HT29 colon
HCT-15 colon = system: HCT-15 colon
HL-60(TB) leukemia = system: HL-60(TB) leukemia
IGROV1 ovarian = system: IGROV1 ovarian
COLO 205 colon = system: COLO 205 colon
KM12 colon = system: KM12 colon

Row | SMILES | TGI (SK-MEL-5 melanoma) [µM] | TGI (SK-OV-3 ovarian) [µM] | TGI (SNB-19 CNS) [µM] | TGI (786-0 renal) [µM] | TGI (HT29 colon) [µM] | TGI (HCT-15 colon) [µM] | TGI (HL-60(TB) leukemia) [µM] | TGI (IGROV1 ovarian) [µM] | TGI (COLO 205 colon) [µM] | TGI (KM12 colon) [µM] | GI50 (SK-MEL-5 melanoma) [µM] | GI50 (SK-OV-3 ovarian) [µM] | GI50 (SNB-19 CNS) [µM] | GI50 (786-0 renal) [µM] | GI50 (HT29 colon) [µM] | GI50 (HCT-15 colon) [µM] | GI50 (HL-60(TB) leukemia) [µM] | GI50 (IGROV1 ovarian) [µM] | GI50 (COLO 205 colon) [µM] | GI50 (KM12 colon) [µM]
1 | COc1cc2c(cc1OC)[C@H]1C(=O)c3cc4c(cc3[C@H]1N(C)C2=O)OCO4 | > 48.8 | > 100 | > 100 | > 45.2 | > 100 | > 100 | > 68.6 | > 100 | > 46.4 | > 100 |  |  |  |  |  |  |  |  |  | 
2 | Cc1cc2c(cc1Cl)SC1=NN(C)C(c3ccccc3O)N1S2(=O)=O (stereo not given) | > 100 | > 100 | > 100 | > 100 | > 100 | > 100 | > 100 | > 100 | > 100 | > 100 | 57 | > 100 | 86.7 | > 100 | > 100 | 54 | > 100 | 77.8 | > 100 | 57.7
3 | CN1CCN(C(=S)SCN2C(=O)c3ccccc3S2(=O)=O)CC1 | 38.9 | > 100 | > 100 | 43 | 18 | 99.1 | 20.3 | > 100 | 21.3 | > 100 | 16.1 | > 100 | > 100 | 12 | 4.24 | 21.3 | 0.492 | 44.8 | 3.48 | 25.3
4 | Cc1ccc(OCCCCCCNCCO)c(C)c1 | 22.4 | 29.8 | 31 | 28.8 | 25.6 | 33.8 | 1.45 | 35.3 | 26.3 | 32.4 | 10.4 | 15.6 | 14.3 | 14 | 11.3 | 15.8 | 0.323 | 16.2 | 10 | 17.2
5 | CN1CC(C(=O)NC2(C)OC3(O)C4CCCN4C(=O)C(Cc4ccccc4)N3C2=O)C=C2c3cccc4[nH]cc(c34)CC21 (stereo not given) | 30.6 | > 100 | > 100 | 45 | 71.1 | 45.9 | 39.1 | 50.8 | 40 | 99.6 |  |  |  |  |  |  |  |  |  | 
6 | O=c1[nH]c2cc(O)ccc2n2cc3c(F)cccc3c12 | > 100 | > 100 | > 100 | > 100 | > 100 | > 100 | > 100 | > 100 | > 100 | > 100 | 0.348 | 1.65 | 3.33 | 4.29 | 5.33 | 0.536 | 6.55 | 2.16 | 7.3 | 1.86
7 | COc1ccc(S(=O)(=O)NCCNc2nccc(-c3c(-c4ccccc4)nc4sccn34)n2)cc1 |  | > 100 | > 100 | > 100 | > 100 | > 100 | > 100 | > 100 | > 100 | > 100 |  | 4.18 | 8.78 | 3.42 | 1.72 | 2.42 | 2.87 | 2.13 | 2.66 | 0.513
8 | O=C(CN=Cc1cccs1)CSC(c1ccccc1)c1ccccc1 | 29 | 58.2 | > 100 | > 100 | 99.2 | 57.3 | 41.9 |  | 24 | 52.5 | 15.6 | 16.3 | 32.5 | 34 | 27.7 | 17.7 | 18.9 |  | 11.7 | 21
9 | COC(=O)C1CCC(=NC2c3ccccc3-c3ccccc32)N1 (stereo not given) |  | > 100 | > 100 | > 100 | > 100 | > 100 | > 100 | > 100 | > 100 | > 100 |  |  |  |  |  |  |  |  |  | 
10 | CCOC(=O)C1=C(c2ccccc2)N(Cc2ccccc2)C2(O)C=CC(=O)C3C(=O)N(c4ccccc4)C(=O)C132 (stereo not given) | 2.93 | 10.7 | 4.59 | 5.34 | 4.83 | 3.67 | 4.58 |  | 3.45 | 3.21 | 1.49 | 3.29 | 2 | 2.11 | 1.93 | 1.7 | 1.8 |  | 1.74 | 1.74
11 | O=C(CC(C(=O)O)N1CCOCC1)c1ccccc1 (stereo not given) | 43 | > 100 | 53.4 | 30.1 | 32.1 | 40.8 | 43.6 | 63.2 | 39.7 |  |  |  |  |  |  |  |  |  |  | 
12 | CC(C)(C)c1ccc(S(=O)(=O)N[C@H]2CC[C@H]3[C@@H]4CCc5cc(O)ccc5[C@H]4CC[C@]23C)cc1 | 3.05 | 8 | 18 | 5.02 | 3.74 |  | 6.11 | 10.8 | 3.3 | 3.87 | 1.65 | 3.12 | 3.54 | 2.19 | 1.96 |  | 2.31 | 3.74 | 1.85 | 1.93
